In US10294212B2 (CURADEV PHARMA PRIVATE LTD., priority 2013, dated 2019):
Counter-ions that a name gives are not always drawn.

Legend:
[1] = target: Human indoleamine 2,3-dioxygenase1 (hIDO1) (Homo sapiens (Human), UniProt P14902); experiment: In-vitro IDO1 enzyme assay (conversion of L-tryptophan to KYN); assay type: biochemical; conditions: read-out: IC50 (IDO1) Enz
How it was run: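 His-tagged hIDO1 (10 nM, E. coli-expressed) incubated with 30 μM L-tryptophan, 20 mM ascorbate, 10 μM methylene blue and 100 μg/mL catalase in 50 mM potassium phosphate pH 6.5, 30 min at 37 °C. TCA stop, then 65 °C hydrolysis; KYN measured by HPLC-UV at 360 nm or LC/MS/MS. IC50 by nonlinear regression versus 1% DMSO control.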

IDO1 in HeLa cells = IDO1 in HeLa cells (Homo sapiens (Human), UniProt P14902); experiment: HeLa cell based IDO1 assay (IFNγ-induced, KYN in supernatant)
Sequence of IDO1 in HeLa cells (P14902 whole entry): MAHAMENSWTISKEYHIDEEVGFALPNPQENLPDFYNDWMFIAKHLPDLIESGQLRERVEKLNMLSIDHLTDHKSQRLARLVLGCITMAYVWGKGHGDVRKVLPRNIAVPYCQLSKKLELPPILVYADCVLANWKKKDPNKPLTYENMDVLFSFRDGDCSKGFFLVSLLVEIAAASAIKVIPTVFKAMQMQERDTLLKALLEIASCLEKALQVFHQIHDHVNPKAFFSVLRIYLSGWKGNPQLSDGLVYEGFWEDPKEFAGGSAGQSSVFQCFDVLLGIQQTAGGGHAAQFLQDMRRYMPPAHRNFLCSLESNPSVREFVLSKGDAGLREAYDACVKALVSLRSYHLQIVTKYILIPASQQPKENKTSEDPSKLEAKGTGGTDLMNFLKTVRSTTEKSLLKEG
How it was run: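 HeLa cells were induced overnight with IFNγ (50 ng/mL), washed, then exposed to compound (typically 10 μM–1 nM) in HBSS with 80 μM L-tryptophan. Supernatant was TCA-treated at 65 °C for 15 min to convert N-formylkynurenine, and KYN was measured by HPLC-UV at 360 nm. IC50 came from nonlinear regression against a 1% DMSO control.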

[2] = target: Human TDO (hTDO)-transfected CHO-K1 cells (Homo sapiens (Human), UniProt P48775); experiment: CHO-K1 cell based TDO assay; conditions: hTDO cellular assay
Sequence of Human TDO (hTDO)-transfected CHO-K1 cells (P48775 whole entry): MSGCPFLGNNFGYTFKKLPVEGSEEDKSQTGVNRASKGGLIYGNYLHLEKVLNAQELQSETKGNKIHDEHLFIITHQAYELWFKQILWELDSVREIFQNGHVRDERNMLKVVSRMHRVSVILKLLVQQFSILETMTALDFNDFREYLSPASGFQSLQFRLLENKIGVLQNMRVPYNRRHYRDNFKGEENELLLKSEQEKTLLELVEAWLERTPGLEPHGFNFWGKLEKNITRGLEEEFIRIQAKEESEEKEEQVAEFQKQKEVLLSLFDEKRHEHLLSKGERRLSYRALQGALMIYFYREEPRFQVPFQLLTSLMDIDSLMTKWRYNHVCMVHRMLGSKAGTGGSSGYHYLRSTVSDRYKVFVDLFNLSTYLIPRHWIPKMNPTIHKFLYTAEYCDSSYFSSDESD
How it was run: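 Stably hTDO-expressing CHO-K1 cells were exposed to compounds (typically 31 μM to 10 nM) in HBSS with 80 μM L-tryptophan for 2 h. TCA-treated supernatant was heated at 65° C for 15 min to convert N-formylkynurenine, then kynurenine was quantified by LC/MS/MS. IC50 came from percent inhibition versus DMSO control.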

Sequence of Human indoleamine 2,3-dioxygenase1 (hIDO1) (P14902 whole entry): as the sequence (P14902 whole entry) above

IC50 [1] [nM]	IC50 (IDO1 in HeLa cells) [nM]	IC50 [2] [nM]	SMILES
< 200	< 200	500 to 2000	Cn1cc(-c2nccc3c(Nc4ccc(F)c(Cl)c4)c(N)oc23)cn1 [Compound 148, N^3-(3-Chloro-4-fluorophenyl)-7-(1-methyl-1H-pyrazol-4-yl)furo[2,3-c]pyridine-2,3-diamine]
< 200	< 200	< 500	Cc1cc(-c2nccc3c(Nc4cccc(F)c4)c(N)oc23)ccn1 [Compound 243, N^3-(3-Fluorophenyl)-7-(2-methylpyridin-4-yl)furo[2,3-c]pyridine-2,3-diamine]
< 200	< 200	500 to 2000	Nc1oc2c(-c3ccnc(C(=O)NCCN4CCOCC4)c3)nccc2c1Nc1ccc(F)c(Cl)c1 [Compound 274, 4-(2-Amino-3-((3-chloro-4-fluorophenyl)amino)furo[2,3-c]pyridin-7-yl)-N-(2-morpholinoethyl)picolinamide]
< 200	< 200	< 500	Nc1oc2cnc(F)cc2c1Nc1ccc(F)c(F)c1 [Compound 216, N^3-(3,4-difluorophenyl)-5-fluorofuro[2,3-c]pyridine-2,3-diamine]
< 200	< 200	> 2000	Nc1oc2c(-c3ccnc(C(=O)Nc4ccccn4)c3)nccc2c1Nc1ccc(F)c(Cl)c1 [Compound 273, 4-(2-Amino-3-((3-chloro-4-fluorophenyl)amino)furo[2,3-c]pyridin-7-yl)-N-(pyridin-2-yl)picolinamide]
< 200	200 to 1000	> 2000	CCCCCNC(=O)c1cc(-c2nccc3c(Nc4ccc(F)c(Cl)c4)c(N)oc23)ccn1 [Compound 275, 4-(2-Amino-3-((3-chloro-4-fluorophenyl)amino)furo[2,3-c]pyridin-7-yl)-N-pentylpicolinamide]
< 200	< 200	500 to 2000	Nc1oc2c(-c3ccc(F)cc3)nccc2c1Nc1ccc(F)c(Cl)c1 [Compound 147, N^3-(3-Chloro-4-fluorophenyl)-7-(4-fluorophenyl)furo[2,3-c]pyridine-2,3-diamine]
< 200	< 200	> 2000	Nc1sc2ccccc2c1Nc1cccc(C(F)(F)F)c1 [Compound 119, N^3-(3-(Trifluoromethyl)phenyl)benzo[b]thiophene-2,3-diamine]
< 200	< 200	500 to 2000	Nc1oc2c(F)nccc2c1Nc1ccc(F)c(C(F)(F)F)c1 [Compound 189, 7-Fluoro-N^3-(4-fluoro-3-(trifluoromethyl)phenyl)furo[2,3-c]pyridine-2,3-diamine]
< 200	< 200	< 500	CNC(=O)c1cc(-c2nccc3c(Nc4ccc(F)cc4)c(N)oc23)ccn1 [Compound 224, 4-(2-Amino-3-((4-fluorophenyl)amino)furo[2,3-c]pyridin-7-yl)-N-methylpicolinamide]
< 200	< 200	500 to 2000	Nc1oc2c(-c3ccnc(C(=O)N4CCCCC4)c3)nccc2c1Nc1ccc(F)c(Cl)c1 [Compound 271, (4-(2-Amino-3-((3-chloro-4-fluorophenyl)amino)furo[2,3-c]pyridin-7-yl)pyridin-2-yl)(piperidin-1-yl)methanone]
< 200	< 200	< 500	Nc1sc2ccccc2c1Nc1cccc(Cl)c1 [Compound 234, N^3-(3-Chlorophenyl)benzo[b]thiophene-2,3-diamine]
< 200	< 200	> 2000	CC(C)CNC(=O)c1cc(-c2nccc3c(Nc4ccc(F)c(Cl)c4)c(N)oc23)ccn1 [Compound 252, 4-(2-Amino-3-((3-chloro-4-fluorophenyl)amino)furo[2,3-c]pyridin-7-yl)-N-isobutylpicolinamide]
< 200	200 to 1000	> 2000	Nc1sc2ccc(Br)cc2c1Nc1ccc(F)c(Cl)c1 [Compound 123, 5-Bromo-N^3-(3-chloro-4-fluorophenyl)benzo[b]thiophene-2,3-diamine]
< 200	< 200	< 500	Nc1oc2cnccc2c1Nc1ccc(F)c(Br)c1 [Compound 58, N^3-(3-Bromo-4-fluorophenyl)furo[2,3-c]pyridine-2,3-diamine]
< 200	< 200	500 to 2000	Nc1oc2cnccc2c1Nc1cccc(I)c1 [Compound 20, N^3-(3-Iodophenyl)furo[2,3-c]pyridine-2,3-diamine]
< 200	< 200	500 to 2000	Nc1sc2ccccc2c1Nc1cccc(Br)c1 [Compound 230, N^3-(3-Bromophenyl)benzo[b]thiophene-2,3-diamine]
< 200	< 200	500 to 2000	COc1cc2c(Nc3ccc(F)c(Cl)c3)c(N)oc2c(C)n1 [Compound 85, N^3-(3-Chloro-4-fluoro-phenyl)-5-methoxy-7-methyl-furo[2,3-c]pyridine-2,3-diamine]
< 200	< 200	500 to 2000	Cc1cc(-c2nccc3c(Nc4ccc(F)c(C(F)(F)F)c4)c(N)oc23)ccn1 [Compound 205, N^3-(4-fluoro-3-(trifluoromethyl)phenyl)-7-(2-methylpyridin-4-yl)furo[2,3-c]pyridine-2,3-diamine]
< 200	< 200	500 to 2000	COc1cccc(-c2nccc3c(Nc4ccc(F)c(Cl)c4)c(N)oc23)c1 [Compound 90, N^3-(3-Chloro-4-fluorophenyl)-7-(3-methoxyphenyl)furo[2,3-c]pyridine-2,3-diamine]
< 200	< 200	500 to 2000	Cc1cc(-c2nccc3c(Nc4cccc(C(F)(F)F)c4)c(N)oc23)ccn1 [Compound 207, 7-(2-methylpyridin-4-yl)-N^3-(3-(trifluoromethyl)phenyl)furo[2,3-c]pyridine-2,3-diamine]
< 200	200 to 1000	500 to 2000	COc1cc2c(Nc3ccc(F)c(Cl)c3)c(N)oc2c(-c2ccc(F)cc2)n1 [Compound 174, N^3-(3-chloro-4-fluorophenyl)-7-(4-fluorophenyl)-5-methoxyfuro[2,3-c]pyridine-2,3-diamine]
< 200	< 200	500 to 2000	Nc1oc2c(N3CCOCC3)nccc2c1Nc1ccc(F)c(Cl)c1 [Compound 245, N^3-(3-Chloro-4-fluorophenyl)-7-morpholinofuro[2,3-c]pyridine-2,3-diamine]

SMILES	IC50 [1] [nM]	IC50 (IDO1 in HeLa cells) [nM]	IC50 [2] [nM]
Nc1sc2ccc(Cl)cc2c1Nc1ccccc1 [Compound 130, 5-Chloro-N^3-phenylbenzo[b]thiophene-2,3-diamine]	200 to 1000	200 to 1000	> 2000
CCOc1cc2c(Nc3ccc(F)c(Cl)c3)c(N)oc2c(-c2ccccc2)n1 [Compound 105, N^3-(3-Chloro-4-fluorophenyl)-5-ethoxy-7-phenylfuro[2,3-c]pyridine-2,3-diamine]	200 to 1000	> 1000	> 2000
Cc1cc(-c2nccc3c(Nc4cccc(Cl)c4F)c(N)oc23)ccn1 [Compound 264, N^3-(3-Chloro-2-fluorophenyl)-7-(2-methylpyridin-4-yl)furo[2,3-c]pyridine-2,3-diamine]	200 to 1000	< 200	> 2000
CCc1ccccc1Nc1c(N)sc2ccccc12 [Compound 232, N^3-(2-Ethylphenyl)benzo[b]thiophene-2,3-diamine hydrochloride]	> 1000	> 1000	> 2000
COc1cncc2oc(N)c(Nc3ccc(F)c(Cl)c3)c12 [Compound 67, N^3-(3-Chloro-4-fluoro-phenyl)-4-methoxy-furo[2,3-c]pyridine-2,3-diamine]	> 1000	< 200	500 to 2000
Nc1oc2cnccc2c1Nc1cccc(CC2CC2)c1 [Compound 84, N^3-(3-(Cyclopropylmethyl)phenyl)furo[2,3-c]pyridine-2,3-diamine]	> 1000	200 to 1000	> 2000
CCOC(=O)Nc1oc2c(-c3ccnc(C)c3)nccc2c1N(C(=O)OCC)c1ccc(F)c(Cl)c1 [Compound 269, Ethyl (3-chloro-4-fluorophenyl)(2-((ethoxycarbonyl)amino)-7-(2-methylpyridin-4-yl)furo[2,3-c]pyridin-3-yl)carbamate]	> 1000	> 1000	> 2000
Cc1cc(C)cc(Nc2c(N)oc3cnccc23)c1 [Compound 14, N^3-(3,5-Dimethylphenyl)furo[2,3-c]pyridine-2,3-diamine]	200 to 1000	< 200	500 to 2000
Nc1oc2cnccc2c1Nc1ccc(Cl)c(Cl)c1 [Compound 15, N^3-(3,4-Dichlorophenyl)furo[2,3-c]pyridine-2,3-diamine]	200 to 1000	200 to 1000	500 to 2000
Cc1ccc2sc(N)c(Nc3ccc(F)c(Cl)c3)c2c1 [Compound 214, N^3-(3-Chloro-4-fluorophenyl)-5-methylbenzo[b]thiophene-2,3-diamine]	200 to 1000	< 200	> 2000
